Earlier results as cited in patent US11248001B2, “PCSK9 inhibitors and methods of use thereof” (ASTRAZENECA AB, priority 2019, dated 2022).

Conditions: clinical trials, patients

alirocumab
decrease in LDL levels: about 50%

B1: evolocumab (antibody, chains of the INN, looked up, V domains shown)
VH: EVQLVQSGAEVKKPGASVKVSCKASGYTLTSYGISWVRQAPGQGLEWMGWVSFYNGNTNYAQKLQGRGTMTTDPSTSTAYMELRSLRSDDTAVYYCARGYGMDVWGQGTTVTVSS
VL: ESALTQPASVSGSPGQSITISCTGTSSDVGGYNSVSWYQQHPGKAPKLMIYEVSNRPSGVSNRFSGSKSGNTASLTISGLQAEDEADYYCNSYTSTSMVFGGGTKLTVL
decrease in LDL levels: 60-75%
